Target: MAPK14 (UniProt Q16539)
Assay: Inhibition of MAPK14 Kinase Activity

MAPK14, sequence (Q16539 whole entry, looked up): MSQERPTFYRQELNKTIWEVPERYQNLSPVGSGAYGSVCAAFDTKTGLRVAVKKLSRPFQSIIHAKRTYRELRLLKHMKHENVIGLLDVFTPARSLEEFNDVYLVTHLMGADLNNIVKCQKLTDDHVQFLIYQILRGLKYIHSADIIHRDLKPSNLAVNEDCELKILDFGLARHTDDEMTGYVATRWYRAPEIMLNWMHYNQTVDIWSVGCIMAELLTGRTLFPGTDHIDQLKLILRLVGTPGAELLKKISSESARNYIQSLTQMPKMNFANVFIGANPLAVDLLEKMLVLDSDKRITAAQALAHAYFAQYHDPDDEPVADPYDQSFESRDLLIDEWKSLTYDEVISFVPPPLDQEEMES

SMILES	IC50
Cc1c(F)cc(C(=O)NC2CC2)cc1-c1ccc(C(=O)NCc2cc(F)c(F)c(F)c2)cn1	< 10 µM
Cc1c(F)cc(C(=O)NC2CC2)cc1-c1ccc(C(=O)N2CCC(C)CC2)cn1	< 10 µM
Cc1c(F)cc(C(=O)NC2CC2)cc1-c1ccc(C(=O)N2CCC(C)CC2C)cn1 (stereo not drawn)	< 10 µM
Cc1c(F)cc(C(=O)NC2CC2)cc1-c1ccc(C(=O)NCc2cccc(Cl)c2F)cn1	< 10 µM
Cc1ccc(C(=O)Nc2nncs2)cc1-c1ccc(C(=O)NCC2CC2)cn1	< 10 µM
Cc1c(F)cc(C(=O)NC2CC2)cc1-c1ccc(C(=O)NCc2ccc(C(F)(F)F)cc2)cn1	< 10 µM
CCC(C)NC(=O)c1ccc(-c2cc(C(=O)NC3CC3)cc(F)c2C)nc1 (stereo not drawn)	< 10 µM
Cc1c(F)cc(C(=O)NC2CC2)cc1-c1ccc(C(=O)NCc2nccs2)cn1	< 10 µM
CCNC(=O)c1ccc(-c2cc(C(=O)NC3CC3)cc(F)c2C)nc1	< 10 µM
Cc1c(F)cc(C(=O)NC2CC2)cc1-c1ccc(C(=O)NCc2ccccc2Cl)cn1	< 10 µM
Cc1ccc(CNC(=O)c2ccc(-c3cc(C(=O)NC4CC4)cc(F)c3C)nc2)c(F)c1F	< 10 µM
Cc1c(F)cc(C(=O)NC2CC2)cc1-c1ccc(C(=O)N2CCCC(C)C2C)cn1 (stereo not drawn)	< 10 µM
Cc1c(F)cc(C(=O)NC2CC2)cc1-c1ccc(C(=O)N(C)C(C)C)cn1	< 10 µM
CCCNC(=O)c1ccc(-c2cc(C(=O)NC3CC3)cc(F)c2C)nc1	< 10 µM
Cc1ccc(C(=O)NC2CC2)cc1-c1ccc(C(=O)Nc2ccccc2CN2CCN(C)CC2)cn1	< 10 µM
Cc1ccc(NC(=O)c2ccc(-c3cc(C(=O)NC4CC4)cc(F)c3C)nc2)cc1	< 10 µM
Cc1c(F)cc(C(=O)NC2CC2)cc1-c1ccc(C(=O)NCc2ccc(F)c(F)c2F)cn1	< 10 µM
CCN(C(=O)c1ccc(-c2cc(C(=O)NC3CC3)cc(F)c2C)nc1)C1CCCCC1	< 10 µM
Cc1c(F)cc(C(=O)NC2CC2)cc1-c1ccc(C(=O)NCc2ccc(F)c(Cl)c2)cn1	< 10 µM
CCCC(C)(C)NC(=O)c1ccc(-c2cc(C(=O)NC3CC3)cc(F)c2C)nc1	< 10 µM
Cc1ccc(NC(=O)c2ccoc2)cc1-c1ccc(C(=O)NCC2CC2)cn1	< 10 µM
CCC1(C)CCCCN1C(=O)c1ccc(-c2cc(C(=O)NC3CC3)cc(F)c2C)nc1 (stereo not drawn)	< 10 µM
Cc1cccc(NC(=O)c2ccc(-c3cc(C(=O)NC4CC4)cc(F)c3C)nc2)c1	< 10 µM
CCC(C)(C)NC(=O)c1ccc(-c2cc(C(=O)NC3CC3)cc(F)c2C)nc1	< 10 µM
COc1cccc(CNC(=O)c2ccc(-c3cc(C(=O)NCC4CC4)ccc3C)nc2)c1	< 10 µM

SMILES	IC50
Cc1c(F)cc(C(=O)NC2CC2)cc1-c1ccc(C(=O)N(C)CC(C)C)cn1	< 10 µM
Cc1c(F)cc(C(=O)NC2CC2)cc1-c1ccc(C(=O)NCC(C)C(F)(F)F)cn1 (stereo not drawn)	< 10 µM
Cc1c(F)cc(C(=O)NC2CC2)cc1-c1ccc(C(=O)NC2CCCC2)cn1	< 10 µM
Cc1c(F)cc(C(=O)NC2CC2)cc1-c1ccc(C(=O)NCc2cc(Cl)ccc2F)cn1	< 10 µM
C/C=C/C(C)(C)NC(=O)c1ccc(-c2cc(C(=O)NC3CC3)cc(F)c2C)nc1	< 10 µM
Cc1ccc(NC(=O)c2ccoc2)cc1-c1ccc(C(=O)Nc2ccccc2CN2CCN(C)CC2)cn1	< 10 µM
Cc1ccc(C(=O)Nc2cccc(-c3ccccn3)c2)cc1-c1ccc(C(=O)NCC2CC2)cn1	< 10 µM
COC(C)(C)CNC(=O)c1ccc(-c2cc(C(=O)NC3CC3)cc(F)c2C)nc1	< 10 µM
Cc1c(F)cc(C(=O)NC2CC2)cc1-c1ccc(C(=O)NCC2CCC2)cn1	< 10 µM
COc1ccc(NC(=O)c2ccc(-c3cc(C(=O)NCC4CC4)ccc3C)nc2)cc1	< 10 µM
Cc1c(F)cc(C(=O)NC2CC2)cc1-c1ccc(C(=O)NCc2ccc(Cl)cc2F)cn1	< 10 µM
Cc1c(F)cc(C(=O)NC2CC2)cc1-c1ccc(C(=O)NCC2CCCCC2)cn1	< 10 µM
Cc1ccc(C(=O)NC2CC2)cc1-c1ccc(C(=O)NCc2cccc(NS(C)(=O)=O)c2)cn1	< 10 µM
Cc1c(F)cc(C(=O)NC2CC2)cc1-c1ccc(C(=O)NCc2ccccc2C(F)(F)F)cn1	< 10 µM
Cc1ccc(C(=O)Nc2nccs2)cc1-c1ccc(C(=O)NCC2CC2)cn1	< 10 µM
Cc1ccc(F)cc1CNC(=O)c1ccc(-c2cc(C(=O)NC3CC3)cc(F)c2C)nc1	< 10 µM
Cc1ccc(C(=O)Nc2nccs2)cc1-c1ccc(C(=O)NCc2cccc(NS(C)(=O)=O)c2)cn1	< 10 µM
Cc1c(F)cc(C(=O)NC2CC2)cc1-c1ccc(C(=O)NCc2ccc(F)cc2F)cn1	< 10 µM
Cc1ccccc1CNC(=O)c1ccc(-c2cc(C(=O)NC3CC3)cc(F)c2C)nc1	< 10 µM
Cc1c(F)cc(C(=O)NC2CC2)cc1-c1ccc(C(=O)NCC(F)c2ccccc2)cn1 (stereo not drawn)	< 10 µM
Cc1c(F)cc(C(=O)NC2CC2)cc1-c1ccc(C(=O)N(C)CCC2CCCC2)cn1	< 10 µM
COc1cccc(CNC(=O)c2ccc(-c3cc(C(=O)NC4CC4)ccc3C)nc2)c1	< 10 µM
Cc1ccc(C(=O)NCC2CC2)cc1-c1ccc(C(=O)NCC2CC2)cn1	< 10 µM
CC(C)=CCNC(=O)c1ccc(-c2cc(C(=O)NC3CC3)cc(F)c2C)nc1	< 10 µM
COCCNC(=O)c1ccc(-c2cc(C(=O)NC3CC3)cc(F)c2C)nc1	< 10 µM

SMILES	IC50
Cc1c(F)cc(C(=O)NC2CC2)cc1-c1ccc(C(=O)NCc2cccc(Cl)c2)cn1	< 10 µM
Cc1c(F)cc(C(=O)NC2CC2)cc1-c1ccc(C(=O)N(C)C2CCCC2)cn1	< 10 µM
Cc1c(F)cc(C(=O)NC2CC2)cc1-c1ccc(C(=O)NCc2ccccc2)cn1	< 10 µM
CCC(C)(CC)NC(=O)c1ccc(-c2cc(C(=O)NC3CC3)cc(F)c2C)nc1	< 10 µM
Cc1ccc(C(=O)NCC2CC2)cc1-c1ccc(C(=O)Nc2ccccc2CN2CCN(C)CC2)cn1	< 10 µM
Cc1ccc(CNC(=O)c2ccc(-c3cc(C(=O)NC4CC4)cc(F)c3C)nc2)cc1F	< 10 µM
Cc1c(F)cc(C(=O)NC2CC2)cc1-c1ccc(C(=O)NCc2cc(F)cc(F)c2F)cn1	< 10 µM
Cc1ccc(C(=O)Nc2nncs2)cc1-c1ccc(C(=O)Nc2ccccc2CN2CCN(C)CC2)cn1	< 10 µM
Cc1c(F)cc(C(=O)NC2CC2)cc1-c1ccc(C(=O)NCCc2ccccc2)cn1	< 10 µM
Cc1c(F)cc(C(=O)NC2CC2)cc1-c1ccc(C(=O)NCc2c(F)ccc(Cl)c2F)cn1	< 10 µM
Cc1c(F)cc(C(=O)NC2CC2)cc1-c1ccc(C(=O)NCc2cc(F)c(F)cc2F)cn1	< 10 µM
Cc1c(F)cc(C(=O)NC2CC2)cc1-c1ccc(C(=O)N2CCCC(C)(C)C2)cn1	< 10 µM
Cc1csc(CNC(=O)c2ccc(-c3cc(C(=O)NC4CC4)cc(F)c3C)nc2)n1	< 10 µM
Cc1c(F)cc(C(=O)NC2CC2)cc1-c1ccc(C(=O)NC(C)Cc2nccs2)cn1 (stereo not drawn)	< 10 µM
Cc1ccc(C(=O)Nc2nccs2)cc1-c1ccc(C(=O)Nc2ccccc2CN2CCN(C)CC2)cn1	< 10 µM
CCC1CCCCN1C(=O)c1ccc(-c2cc(C(=O)NC3CC3)cc(F)c2C)nc1 (stereo not drawn)	< 10 µM
Cc1ccc(NC(=O)c2ccnc(N3CCCC3)c2)cc1-c1ccc(C(=O)NCC2CC2)cn1	< 10 µM
Cc1csc(CCNC(=O)c2ccc(-c3cc(C(=O)NC4CC4)cc(F)c3C)nc2)n1	< 10 µM
CCCC(O)C(C)NC(=O)c1ccc(-c2cc(C(=O)NC3CC3)cc(F)c2C)nc1 (stereo not drawn)	< 10 µM
Cc1c(F)cc(C(=O)NC2CC2)cc1-c1ccc(C(=O)NCCC(F)(F)F)cn1	< 10 µM
Cc1c(F)cc(C(=O)NC2CC2)cc1-c1ccc(C(=O)NCC2CCCC2)cn1	< 10 µM
Cc1ccc(C(=O)Nc2nncs2)cc1-c1ccc(C(=O)NCc2cccc(NS(C)(=O)=O)c2)cn1	< 10 µM
COc1ccc(NC(=O)c2ccc(-c3cc(C(=O)NC4CC4)ccc3C)nc2)cc1	< 10 µM
COc1ccc(NC(=O)c2ccc(-c3cc(C(=O)Nc4nncs4)ccc3C)nc2)cc1	< 10 µM
COc1cccc(CNC(=O)c2ccc(-c3cc(NC(=O)c4ccoc4)ccc3C)nc2)c1	< 10 µM

SMILES	IC50
Cc1ccc(NC(=O)c2ccsc2)cc1-c1ccc(C(=O)NCC2CC2)cn1	< 10 µM
Cc1c(F)cc(C(=O)NC2CC2)cc1-c1ccc(C(=O)NCCC(C)(C)C)cn1	< 10 µM
Cc1ccc(NC(=O)c2ccsc2)cc1-c1ccc(C(=O)Nc2ccccc2CN2CCN(C)CC2)cn1	< 10 µM
Cc1c(F)cc(C(=O)NC2CC2)cc1-c1ccc(C(=O)NCc2ccccc2F)cn1	< 10 µM
Cc1c(F)cc(C(=O)NC2CC2)cc1-c1ccc(C(=O)N2CCCCC2C)cn1 (stereo not drawn)	< 10 µM
Cc1c(F)cc(C(=O)NC2CC2)cc1-c1ccc(C(=O)NC2CC2)cn1	< 10 µM
Cc1c(F)cc(C(=O)NC2CC2)cc1-c1ccc(C(=O)NCc2cccc(F)c2F)cn1	< 10 µM
Cc1c(F)cc(C(=O)NC2CC2)cc1-c1ccc(C(=O)NCCc2nccs2)cn1	< 10 µM
Cc1c(F)cc(C(=O)NC2CC2)cc1-c1ccc(C(=O)NCc2cccc(C(F)(F)F)c2)cn1	< 10 µM
Cc1ccc(NC(=O)c2ccsc2)cc1-c1ccc(C(=O)NCc2cccc(NS(C)(=O)=O)c2)cn1	< 10 µM
Cc1c(F)cc(C(=O)NC2CC2)cc1-c1ccc(C(=O)NCc2ccc(Cl)cc2)cn1	< 10 µM
COc1ccc(NC(=O)c2ccc(-c3cc(C(=O)Nc4nccs4)ccc3C)nc2)cc1	< 10 µM
Cc1c(F)cc(C(=O)NC2CC2)cc1-c1ccc(C(=O)NCc2ccc(F)cc2)cn1	< 10 µM
Cc1c(F)cc(C(=O)NC2CC2)cc1-c1ccc(C(=O)N2CCC(C)C2(C)C)cn1 (stereo not drawn)	< 10 µM
CCCC(C)NC(=O)c1ccc(-c2cc(C(=O)NC3CC3)cc(F)c2C)nc1 (stereo not drawn)	< 10 µM
CCCC1CCCCN1C(=O)c1ccc(-c2cc(C(=O)NC3CC3)cc(F)c2C)nc1 (stereo not drawn)	< 10 µM
CCN(C(=O)c1ccc(-c2cc(C(=O)NC3CC3)cc(F)c2C)nc1)C(C)C	< 10 µM
Cc1c(F)cc(C(=O)NC2CC2)cc1-c1ccc(C(=O)NCc2c(F)ccc(F)c2Cl)cn1	< 10 µM
COc1cccc(NC(=O)c2ccc(-c3cc(C(=O)NC4CC4)cc(F)c3C)nc2)c1	< 10 µM
CCC1CC1CNC(=O)c1ccc(-c2cc(C(=O)NC3CC3)cc(F)c2C)nc1 (stereo not drawn)	< 10 µM
Cc1c(F)cc(C(=O)NC2CC2)cc1-c1ccc(C(=O)NC2CC2(C)C)cn1 (stereo not drawn)	< 10 µM
Cc1ccsc1CNC(=O)c1ccc(-c2cc(C(=O)NC3CC3)cc(F)c2C)nc1	< 10 µM
Cc1c(F)cc(C(=O)NC2CC2)cc1-c1ccc(C(=O)N(C)C2(C)CCCC2)cn1	< 10 µM

From the Kinase Knowledgebase extract (Sharma et al. 2016)
